Results on six molecules are retold here after paper PMC4043309 (Journal of medicinal chemistry, 2013).

Molecules are shown by their SMILES.

A short description of one data set: Stabilities. The data set is classed as physicochemical. The note with it: for stability: isomerization on storage: methanol or methanol–chloroform mixture (v/v 1:1) as solvent.
For data set [1], the target named is T1, recombinant human aromatase (CYP19) (Homo sapiens, UniProt P11511).
T1 sequence (P11511 1-503): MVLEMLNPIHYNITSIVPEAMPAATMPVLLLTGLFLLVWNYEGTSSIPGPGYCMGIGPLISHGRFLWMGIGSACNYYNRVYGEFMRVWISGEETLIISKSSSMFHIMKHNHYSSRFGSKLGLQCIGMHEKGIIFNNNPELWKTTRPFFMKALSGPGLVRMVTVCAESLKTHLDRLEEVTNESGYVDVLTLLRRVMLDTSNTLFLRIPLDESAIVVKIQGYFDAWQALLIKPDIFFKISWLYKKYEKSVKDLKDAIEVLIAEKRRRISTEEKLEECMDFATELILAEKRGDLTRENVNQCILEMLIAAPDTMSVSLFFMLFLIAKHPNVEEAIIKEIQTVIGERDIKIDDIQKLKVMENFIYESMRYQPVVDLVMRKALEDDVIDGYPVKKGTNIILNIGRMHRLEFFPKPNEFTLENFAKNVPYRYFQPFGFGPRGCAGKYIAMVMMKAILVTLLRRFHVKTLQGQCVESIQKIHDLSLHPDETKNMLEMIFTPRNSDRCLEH
Nature of the data set: Inhibition of recombinant human aromatase.

Data set [2] concerns the target recombinant human estrogen receptor-β (ER-β) (Homo sapiens, UniProt Q92731). Type of data set: binding. The following applies: at 100 μM compound.
For data set [3], the target named is T2, recombinant human estrogen receptor-α (ER-α) (Homo sapiens, UniProt P03372).
T2 sequence (P03372 1-595): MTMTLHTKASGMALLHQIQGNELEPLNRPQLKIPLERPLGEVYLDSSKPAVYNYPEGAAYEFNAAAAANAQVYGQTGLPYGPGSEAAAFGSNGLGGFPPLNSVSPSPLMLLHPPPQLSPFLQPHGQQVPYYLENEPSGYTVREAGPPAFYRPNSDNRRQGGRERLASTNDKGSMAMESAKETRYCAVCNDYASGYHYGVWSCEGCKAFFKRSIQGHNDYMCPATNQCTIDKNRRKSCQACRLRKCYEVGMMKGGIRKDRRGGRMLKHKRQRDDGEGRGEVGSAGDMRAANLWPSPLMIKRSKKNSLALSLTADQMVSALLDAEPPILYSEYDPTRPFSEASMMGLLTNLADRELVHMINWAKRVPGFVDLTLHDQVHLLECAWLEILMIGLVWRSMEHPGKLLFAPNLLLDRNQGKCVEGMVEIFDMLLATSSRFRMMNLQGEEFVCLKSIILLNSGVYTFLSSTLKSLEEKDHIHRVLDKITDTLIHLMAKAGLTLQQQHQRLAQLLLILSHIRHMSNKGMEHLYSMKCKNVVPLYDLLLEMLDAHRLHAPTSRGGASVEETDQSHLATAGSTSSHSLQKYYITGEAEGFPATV
The data set is classed as binding. The note with it: at 100 μM compound.

recombinant human estrogen receptor-β (ER-β), sequence (Q92731 whole entry): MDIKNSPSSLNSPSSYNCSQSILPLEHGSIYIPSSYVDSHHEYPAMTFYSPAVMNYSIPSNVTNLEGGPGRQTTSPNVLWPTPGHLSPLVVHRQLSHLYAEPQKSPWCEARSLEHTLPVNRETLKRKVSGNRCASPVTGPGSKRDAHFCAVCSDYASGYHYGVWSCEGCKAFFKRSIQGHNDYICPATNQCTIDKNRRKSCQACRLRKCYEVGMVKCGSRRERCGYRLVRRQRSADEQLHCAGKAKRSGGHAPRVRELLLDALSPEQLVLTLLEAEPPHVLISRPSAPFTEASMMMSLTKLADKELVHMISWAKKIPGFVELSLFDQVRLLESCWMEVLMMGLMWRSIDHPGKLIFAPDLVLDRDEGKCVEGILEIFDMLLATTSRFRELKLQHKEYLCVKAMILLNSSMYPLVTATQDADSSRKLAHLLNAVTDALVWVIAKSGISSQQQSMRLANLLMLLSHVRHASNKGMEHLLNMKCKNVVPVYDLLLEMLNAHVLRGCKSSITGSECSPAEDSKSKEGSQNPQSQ

With `CC/C(=C(\c1ccc(O)cc1)c1ccc(OCCN)cc1)c1ccccc1` [Z-4, (Z)-4-(1-(4-(2-Aminoethoxy)phenyl)-2-phenylbut-1-enyl)phenol], the “stability: isomerization to mixed (E,Z)-norendoxifen” value in “Stabilities” (chloroform (or dichloromethane) as the single solvent) was “fast isomerization”. The “stability: isomerization on storage” value in the data set “Stabilities” is given as “stored for at least a few weeks without substantial isomerization”.
Take `CC/C(=C(\c1ccc(O)cc1)c1ccc(OCC(N)=O)cc1)c1ccccc1` [compound 3, (E,Z)-2-(4-(1-(4-Hydroxyphenyl)-2-phenylbut-1-enyl)phenoxy)-acetamide]: in data set [1], the “fold less potent against aromatase than mixed (E,Z)-norendoxifen” value worked out at 90 fold. The ER-β percent competition in data set [2] stood at 71% competition. Besides, in data set [3], the ER-α percent competition was determined as 57% competition.
With `CC/C(=C(/c1ccc(OCC(N)=O)cc1)c1ccc(OC(=O)C(C)(C)C)cc1)c1ccccc1` [compound 7, (E)-4-(1-(4-(2-Amino-2-oxoethoxy)phenyl)-2-phenylbut-1-enyl)-phenyl Pivalate], in data set [2], the ER-β percent competition stood at 45% competition. For the same molecule, in data set [3], the ER-α percent competition turned out to be 56% competition.
`CCC(=C(c1ccc(O)cc1)c1ccc(O)cc1)c1ccccc1` [compound 2, 4,4′-(2-Phenylbut-1-ene-1,1-diyl)diphenol]: in data set [3], the ER-α percent competition is 80% competition.
For the molecule `CC/C(=C(/c1ccc(O)cc1)c1ccc(OC(=O)C(C)(C)C)cc1)c1ccccc1` [compound 6, (E)-4-(1-(4-Hydroxyphenyl)-2-phenylbut-1-enyl)phenyl Pivalate], the ER-β percent competition in data set [2] is recorded as 68% competition. Further, the ER-α percent competition in data set [3] stood at 68% competition.
As for `CC/C(=C(/c1ccc(O)cc1)c1ccc(OCCN)cc1)c1ccccc1` [E-4, (E)-4-(1-(4-(2-Aminoethoxy)phenyl)-2-phenylbut-1-enyl)phenol], the “stability: isomerization on storage” value in the data set “Stabilities” was “stored for at least a few weeks without substantial isomerization”.
